Results taken from paper PMC8217813, “Bridging Computational Vaccinology and Vaccine Development Through Systematic Identification, Characterization, and Downselection of Conserved and Variable Circumsporozoite Protein CD4 T Cell Epitopes From Diverse Plasmodium falciparum Strains” (Frontiers in Immunology, 2021).
Peptide text beside a SMILES is read from it.

Experiments:
[1] = target: HLA-DRB1*0701 (Homo sapiens, UniProt P01903+P01911, A100R/A102G/A103Q/D57E/D86V/E43K/F76Y/K127E/L162R/M171V/P40G/Q125H/Q99D/R33Q/R42Y/R54Q/S133A/S66F/T210M/V115G/Y107V/Y59L/Y89S); assay: In vitro class II HLA binding competition assay
In short: (§1)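 IC50 values derive from percent inhibition of reference-peptide binding, measured by time-resolved fluorescence with a europium-linked probe after anti-HLA-DR capture. Titrated test peptides (100,000 nM down to 100 nM final) were incubated 24 h with a fluorescent reference peptide and limiting class II HLA monomers.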

[2] = target: HLA-DRB1*0801 (Homo sapiens, UniProt P01903+P01911, A100R/A103L/A169T/D86S/F76Y/H45Y/I96F/K41T/L162R/M171V/P40S/Q125H/Q178H/Q39Y/Q99D/R218S/R42G/S66Y/V115G/W38E); assay: In vitro class II HLA binding competition assay; conditions: competition with fluorescent-labeled reference peptide, class II HLA monomers, 24-hours, test peptide 100,000 nM to 100 nM, time-resolved fluorescence
In short: as §1

[3] = target: T1, HLA-DRB1*1101 (Homo sapiens, UniProt P01903+P01911, A100R/A169T/A87E/I96F/K41T/L162R/M171V/P40S/Q125H/Q178H/Q39Y/Q99D/R42S/S66Y/T262R/V115G/W38E); assay: In vitro class II HLA binding competition assay; conditions: competition with fluorescent-labeled reference peptide, class II HLA monomers, 24-hours, test peptide 100,000 nM to 100 nM, time-resolved fluorescence
T1 construct: purchased
In short: as §1

[4] = target: T2, HLA-DRB1*1501 (Homo sapiens, UniProt P01903+P01911); assay: In vitro class II HLA binding competition assay
T2 construct: purchased
In short: as §1

[5] = target: T3, HLA-DRB1*0101 (Homo sapiens, UniProt P01903+P01911, A100R/D57E/F55L/F60I/F76Y/I96L/L162R/M171V/P40L/Q125E/R42F/V115G/Y59C); assay: In vitro class II HLA binding competition assay; conditions: competition with fluorescent-labeled reference peptide, class II HLA monomers, 24-hours, test peptide 100,000 nM to 100 nM, time-resolved fluorescence
T3 construct: purchased
In short: as §1

[6] = target: HLA-DRB1*0301 (Homo sapiens, UniProt P01903+P01911, A100K/A102G/A103R/A169T/F55Y/I96L/K41T/L162R/M171V/P40S/Q125H/Q178H/Q39Y/R42S/S66N/T106N/T262R/W38E/Y61H); assay: In vitro class II HLA binding competition assay; conditions: competition with fluorescent-labeled reference peptide, class II HLA monomers, 24-hours, test peptide 100,000 nM to 100 nM, time-resolved fluorescence
In short: as §1

[7] = target: T4, HLA-DRB1*0401 (Homo sapiens, UniProt P01903+P01911, A100K/A169T/F76Y/I96L/K127E/L162R/M171V/N62H/P40V/Q125Y/R42H/S133A/S149N/S66Y/V115G/V209L/W38E); assay: In vitro class II HLA binding competition assay
T4 construct: purchased
In short: as §1

[8] = target: HLA-DRB1*1301 (Homo sapiens, UniProt P01903+P01911, A100E/A169T/K41T/L162R/M171V/P40S/Q125H/Q178H/Q39Y/Q99D/R42S/S66N/T262R/W38E/Y61H); assay: In vitro class II HLA binding competition assay; conditions: competition with fluorescent-labeled reference peptide, class II HLA monomers, 24-hours, test peptide 100,000 nM to 100 nM, time-resolved fluorescence
In short: as §1

[9] = tested on: CD4 T cells co-cultured with autologous DCs from PBMCs; assay type: cell-based, human; conditions: positive = Stimulation Index ≥1.5-fold above baseline, 5 µg/mL peptide

## CC[C@H](C)[C@H](NC(=O)[C@H](Cc1c[nH]cn1)NC(=O)[C@H](CCC(N)=O)NC(=O)[C@H](CC(=O)O)NC(C)=O)C(=O)N[C@@H](CCC(=O)O)C(=O)N[C@@H](CCCCN)C(=O)N[C@@H](Cc1ccc(O)cc1)C(=O)N[C@@H](CC(C)C)C(=O)N[C@@H](CCCCN)C(=O)N[C@H](C(=O)N[C@H](C(=O)N[C@@H](CCC(N)=O)C(=O)N[C@@H](CC(N)=O)C(=O)N[C@@H](CO)C(=O)N[C@@H](CC(C)C)C(=O)N[C@@H](CO)C(=O)N[C@H](C(=O)N[C@@H](CCC(=O)O)C(=O)N[C@@H](Cc1c[nH]c2ccccc12)C(=O)N[C@@H](CO)C(=O)N1CCC[C@H]1C(N)=O)[C@@H](C)O)[C@@H](C)CC)[C@@H](C)CC [ICS5] (Ac-DQHIEKYLKIIQNSLSTEWSP-NH2)
[1]
  IC50: 3.68 µM
[2]
  IC50: 23.1 µM
[3]
  IC50: 5.55 µM
[4]
  IC50: 0.03 µM
[5]
  IC50: 0.218 µM
[6]
  IC50: 84.7 µM
[7]
  IC50: 0.035 µM
[8]
  IC50: 19.8 µM
[9]; DR1 donors N=5, ICCS after 14-day co-culture
  Percentage of donors demonstrating IFN-γ responses, DR1: 80%
[9]; DR1 donors N=5, ICCS
  Percentage of donors demonstrating IL-2 responses, DR1: 20%
  Percentage of donors demonstrating IL-4 responses, DR1: 0%
  Percentage of donors demonstrating IL-10 responses, DR1: 0%
  Percentage of donors demonstrating TNF-α responses, DR1: 40%
[9]; DR3 donors N=6, ICCS after 14-day co-culture
  Percentage of donors demonstrating IFN-γ responses, DR3: 33%
[9]; DR3 donors N=6, ICCS
  Percentage of donors demonstrating IL-2 responses, DR3: 0%
  Percentage of donors demonstrating IL-4 responses, DR3: 33%
  Percentage of donors demonstrating IL-10 responses, DR3: 17%
  Percentage of donors demonstrating TNF-α responses, DR3: 17%
[9]; DR4 donors N=10, ICCS after 14-day co-culture
  Percentage of donors demonstrating IFN-γ responses, DR4: 60%
[9]; DR4 donors N=10, ICCS
  Percentage of donors demonstrating IL-2 responses, DR4: 40%
  Percentage of donors demonstrating IL-4 responses, DR4: 0%
  Percentage of donors demonstrating IL-10 responses, DR4: 0%
  Percentage of donors demonstrating TNF-α responses, DR4: 40%
[9]; DR7 donors N=4, ICCS after 14-day co-culture
  Percentage of donors demonstrating IFN-γ responses, DR7: 75%
[9]; DR7 donors N=4, ICCS
  Percentage of donors demonstrating IL-2 responses, DR7: 25%
  Percentage of donors demonstrating IL-4 responses, DR7: 25%
  Percentage of donors demonstrating IL-10 responses, DR7: 0%
  Percentage of donors demonstrating TNF-α responses, DR7: 0%
[9]; DR8 donors N=4, ICCS after 14-day co-culture
  Percentage of donors demonstrating IFN-γ responses, DR8: 25%
[9]; DR8 donors N=4, ICCS
  Percentage of donors demonstrating IL-2 responses, DR8: 0%
  Percentage of donors demonstrating IL-4 responses, DR8: 0%
  Percentage of donors demonstrating IL-10 responses, DR8: 0%
  Percentage of donors demonstrating TNF-α responses, DR8: 75%
[9]; DR9 donors N=4, ICCS after 14-day co-culture
  Percentage of donors demonstrating IFN-γ responses, DR9: 50%
[9]; DR9 donors N=4, ICCS
  Percentage of donors demonstrating IL-2 responses, DR9: 25%
  Percentage of donors demonstrating IL-4 responses, DR9: 0%
  Percentage of donors demonstrating IL-10 responses, DR9: 25%
  Percentage of donors demonstrating TNF-α responses, DR9: 50%
[9]; DR11 donors N=4, ICCS after 14-day co-culture
  Percentage of donors demonstrating IFN-γ responses, DR11: 100%
[9]; DR11 donors N=4, ICCS
  Percentage of donors demonstrating IL-2 responses, DR11: 50%
  Percentage of donors demonstrating IL-4 responses, DR11: 0%
  Percentage of donors demonstrating IL-10 responses, DR11: 0%
  Percentage of donors demonstrating TNF-α responses, DR11: 75%
[9]; DR13 donors N=7, ICCS after 14-day co-culture
  Percentage of donors demonstrating IFN-γ responses, DR13: 43%
[9]; DR13 donors N=7, ICCS
  Percentage of donors demonstrating IL-2 responses, DR13: 14%
  Percentage of donors demonstrating IL-4 responses, DR13: 14%
  Percentage of donors demonstrating IL-10 responses, DR13: 0%
  Percentage of donors demonstrating TNF-α responses, DR13: 43%
[9]; DR15 donors N=7, ICCS after 14-day co-culture
  Percentage of donors demonstrating IFN-γ responses, DR15: 43%
[9]; DR15 donors N=7, ICCS
  Percentage of donors demonstrating IL-2 responses, DR15: 0%
  Percentage of donors demonstrating IL-4 responses, DR15: 0%
  Percentage of donors demonstrating IL-10 responses, DR15: 14%
  Percentage of donors demonstrating TNF-α responses, DR15: 29%
